# What was measured:
# [1] = tested on: Staphylococcus aureus-SMITH (GC 4543); experiment: Acute lethal infection in mice (ED50); format: in vivo; settings: female CD-1 mice, intraperitoneal challenge, intravenous dose 30 min. after infection, 7 day survival ratios
# Outline: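 Bacteria suspended in Trypticase Soy Broth or hog gastric mucin are injected intraperitoneally into female CD-1 mice at a dose killing untreated animals within 24-48 hr. Thirty minutes later, test agent is administered intravenously. Survival at day 7 is scored.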
# Streptococcus sp. = experiment: In vitro antibacterial evaluation: minimum inhibitory concentration (MIC), broth dilution method; format: cell-based
# Outline: (§1)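 MIC by broth dilution in Mueller-Hinton II medium following NCCLS M7-A2. Inoculum was 5×10^5 CFU/mL and antibiotic was tested over 64-0.06 μg/mL. Gram-positive panel included clinical isolates resistant to methicillin, penicillin and/or vancomycin.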
# Enterococcus sp. = experiment: as above; format: cell-based
# Outline: as §1
# Escherichia coli = experiment: as above; format: cell-based
# Outline: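 Broth dilution per NCCLS M7-A2 in Muller-Hinton II […], inoculum 5×10^5 CFU/mL, antibiotic tested over 64-0.06 μg/mL. MIC is taken as the lowest concentration that inhibits growth. Panel includes recent clinical isolates resistant to methicillin, penicillin and/or vancomycin.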
# Staphylococcus sp. = experiment: as above; format: cell-based; settings: broth dilution, 18 hours at 35° C.
# Outline: as §1
# [2] = broth dilution, inoculum 5×10^5 CFU/mL, 18 hours at 35° C.
structure (smiles),measurement,setting,value
"Cc1ccc(Oc2ccc(C3OCC4OC(OC5C(CO)OC(Oc6ccc(CC7NC(=O)C(C(C)c8ccccc8)NC(=O)CNC(=O)C(CO)NC(=O)C(C(O)C8CNC(=N)N8C8OC(CO)C(O)C(O)C8O)NC(=O)C(C(O)C8CNC(=N)N8)NC7=O)cc6)C(O)C5O)C(O)C(O)C4O3)cc2)cc1 (stereo not drawn) [Example 174, Cyclo[glycyl-β-methylphenylalanyl-O-[4-O-[4,6-O-[4-(4-methylphenoxy)benzylidene]hexopyranosyl]hexopyranosyl]tyrosyl-3-(2-iminoimidazolidin-4-yl)seryl-3-(3-hexopyranosyl-2-iminoimidazolidin-4-yl)serylseryl]]","median effective dose (ED50), Staphylococcus aureus-SMITH (GC 4543)",[1],0.08 mg/kg
same,MIC Streptococcus agalactiae (GC 4564),Streptococcus sp.; [2],<0.06 mg/L
same,MIC Streptococcus pneumoniae (ATCC 6301),Streptococcus sp.; [2],<0.06 mg/L
same,MIC Streptococcus pneumoniae (GC 1894),Streptococcus sp.; [2],<0.06 mg/L
same,MIC Streptococcus pneumoniae (GC 4565),Streptococcus sp.; [2],<0.06 mg/L
same,MIC Streptococcus pyogenes (GC 4563),Streptococcus sp.; [2],<0.06 mg/L
same,MIC Streptococcus pneumoniae (ATCC 6301),Streptococcus sp.; strain ATCC 6301,<0.06 mg/L
same,MIC Streptococcus pneumoniae (GC 1894),Streptococcus sp.; strain GC 1894,<0.06 mg/L
same,MIC Streptococcus pyogenes (GC 4563),Streptococcus sp.; strain GC 4563,<0.06 mg/L
same,MIC Streptococcus agalactiae (GC 4564),Streptococcus sp.; strain GC 4564,<0.06 mg/L
same,MIC Streptococcus pneumoniae (GC 4565),Streptococcus sp.; strain GC 4565,<0.06 mg/L
same,MIC Enterococcus avium (GC 4558),Enterococcus sp.; [2],2 mg/L
same,MIC Enterococcus faecalis (ATCC 29212),Enterococcus sp.; [2],2 mg/L
same,MIC Enterococcus faecalis (GC 2242),Enterococcus sp.; [2],2 mg/L
same,MIC Enterococcus faecalis (GC 2691),Enterococcus sp.; [2],2 mg/L
same,MIC Enterococcus faecalis (GC 3059),Enterococcus sp.; [2],2 mg/L
same,MIC Enterococcus faecalis (GC 4552),Enterococcus sp.; [2],1 mg/L
same,MIC Enterococcus faecalis (GC 4553),Enterococcus sp.; [2],1 mg/L
same,MIC Enterococcus faecalis (GC 4554),Enterococcus sp.; [2],1 mg/L
same,MIC Enterococcus faecalis (GC 6189),Enterococcus sp.; [2],2 mg/L
same,MIC Enterococcus faecium (GC 2243),Enterococcus sp.; [2],1 mg/L
same,MIC Enterococcus faecium (GC 4556),Enterococcus sp.; [2],1 mg/L
same,MIC Enterococcus faecium (GC 4557),Enterococcus sp.; [2],2 mg/L
same,MIC Enterococcus faecalis (ATCC 29212),Enterococcus sp.; strain ATCC 29212,2 mg/L
same,MIC Enterococcus faecalis (GC 2242),Enterococcus sp.; strain GC 2242,2 mg/L
same,MIC Enterococcus faecium (GC 2243),Enterococcus sp.; strain GC 2243,1 mg/L
same,MIC Enterococcus faecalis (GC 2691),Enterococcus sp.; strain GC 2691,2 mg/L
same,MIC Enterococcus faecalis (GC 3059),Enterococcus sp.; strain GC 3059,2 mg/L
same,MIC Enterococcus faecalis (GC 4552),Enterococcus sp.; strain GC 4552,1 mg/L
same,MIC Enterococcus faecalis (GC 4553),Enterococcus sp.; strain GC 4553,1 mg/L
same,MIC Enterococcus faecalis (GC 4554),Enterococcus sp.; strain GC 4554,1 mg/L
same,MIC Enterococcus faecium (GC 4556),Enterococcus sp.; strain GC 4556,1 mg/L
same,MIC Enterococcus faecium (GC 4557),Enterococcus sp.; strain GC 4557,2 mg/L
same,MIC Enterococcus avium (GC 4558),Enterococcus sp.; strain GC 4558,2 mg/L
same,MIC Enterococcus faecalis (GC 6189),Enterococcus sp.; strain GC 6189,2 mg/L
same,MIC Escherichia coli (ATCC 25922),Escherichia coli; strain ATCC 25922,>64 mg/L
same,MIC Escherichia coli (GC 4559),Escherichia coli; strain GC 4559,>64 mg/L
same,MIC Escherichi coli (GC 4560),Escherichia coli; strain GC 4560,4 mg/L
same,MIC Coagulase Negative Staphylococcus (GC 4547),Staphylococcus sp.; 5×10^5 CFU/mL,2 mg/L
same,MIC Coagulase Negative Staphylococcus (GC 4548),Staphylococcus sp.; 5×10^5 CFU/mL,0.5 mg/L
same,MIC Coagulase Negative Staphylococcus (GC 4549),Staphylococcus sp.; 5×10^5 CFU/mL,1 mg/L
same,MIC Coagulase Negative Staphylococcus (GC 4551),Staphylococcus sp.; 5×10^5 CFU/mL,1 mg/L
same,MIC Coagulase Negative Staphylococcus (GC 6257),Staphylococcus sp.; 5×10^5 CFU/mL,0.5 mg/L
same,MIC Staphylococcus aureus (ATCC 29213),Staphylococcus sp.; 5×10^5 CFU/mL,2 mg/L
same,MIC Staphylococcus aureus (GC 1131),Staphylococcus sp.; 5×10^5 CFU/mL,1 mg/L
same,MIC Staphylococcus aureus (GC 3051),Staphylococcus sp.; 5×10^5 CFU/mL,2 mg/L
same,MIC Staphylococcus aureus (GC 3053),Staphylococcus sp.; 5×10^5 CFU/mL,2 mg/L
same,MIC Staphylococcus aureus (GC 4541),Staphylococcus sp.; 5×10^5 CFU/mL,2 mg/L
same,MIC Staphylococcus aureus (GC 4542),Staphylococcus sp.; 5×10^5 CFU/mL,2 mg/L
same,MIC Staphylococcus aureus (GC 4544),Staphylococcus sp.; 5×10^5 CFU/mL,1 mg/L
same,MIC Staphylococcus aureus (GC 4545),Staphylococcus sp.; 5×10^5 CFU/mL,1 mg/L
same,MIC Staphylococcus aureus-SMITH (GC 4543),Staphylococcus sp.; 5×10^5 CFU/mL,1 mg/L
same,MIC Staphylococcus haemolyticus (GC 4546),Staphylococcus sp.; 5×10^5 CFU/mL,2 mg/L
same,MIC Staphylococcus aureus (ATCC 29213),Staphylococcus sp.; strain ATCC 29213,2 mg/L
same,MIC Staphylococcus aureus (GC 1131),Staphylococcus sp.; strain GC 1131,1 mg/L
same,MIC Staphylococcus aureus (GC 3051),Staphylococcus sp.; strain GC 3051,2 mg/L
same,MIC Staphylococcus aureus (GC 3053),Staphylococcus sp.; strain GC 3053,2 mg/L
same,MIC Staphylococcus aureus (GC 4541),Staphylococcus sp.; strain GC 4541,2 mg/L
same,MIC Staphylococcus aureus (GC 4542),Staphylococcus sp.; strain GC 4542,2 mg/L
same,MIC Staphylococcus aureus (GC 4544),Staphylococcus sp.; strain GC 4544,1 mg/L
same,MIC Staphylococcus aureus (GC 4545),Staphylococcus sp.; strain GC 4545,1 mg/L

# From patent US8247211B2, “Glycopeptide antibiotics” (American Cyanamid Company, priority 2001, dated 2012)
